Assay results from article PMC4503722, “Novel Phenotypic Outcomes Identified for a Public Collection of Approved Drugs from a Publicly Accessible Panel of Assays” (PLoS ONE, 2015).

Key:
[1] = tested on: alkaline phosphatase (ALP) activity in C2C12 cells; format: cell-based; conditions: concentration response; for WntCondMedia_Alk Phos C2C12 IC50/EC50: assay number 6
hp70S6K1 (RPS6KB1) = target: T1, hp70S6K1 (RPS6KB1) (Homo sapiens, UniProt P23443); test: Cerep LANCE kinase assay hp70S6K1 (S1 assay 31); format: biochemical
T1 construct: purchased Cerep (LANCE kinase assay platform, contract assay)
T1 sequence (P23443 whole entry): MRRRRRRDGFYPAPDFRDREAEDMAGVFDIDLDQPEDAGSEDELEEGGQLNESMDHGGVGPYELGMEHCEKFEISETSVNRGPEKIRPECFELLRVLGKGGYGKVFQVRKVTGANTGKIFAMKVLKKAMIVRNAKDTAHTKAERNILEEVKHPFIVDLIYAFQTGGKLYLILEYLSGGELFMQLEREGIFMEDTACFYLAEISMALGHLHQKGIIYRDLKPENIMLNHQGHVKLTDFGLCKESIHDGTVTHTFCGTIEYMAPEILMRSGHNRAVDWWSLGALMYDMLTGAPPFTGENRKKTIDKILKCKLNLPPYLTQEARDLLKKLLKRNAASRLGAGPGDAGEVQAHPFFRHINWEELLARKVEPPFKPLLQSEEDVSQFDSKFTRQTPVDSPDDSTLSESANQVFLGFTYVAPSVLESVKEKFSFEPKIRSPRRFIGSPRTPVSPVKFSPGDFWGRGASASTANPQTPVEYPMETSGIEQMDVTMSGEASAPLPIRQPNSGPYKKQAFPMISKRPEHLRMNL

HeLa cells = test: cells; format: cell-based; conditions: for Hela CellCycMod PI 2N IC50/EC50: assay number 14; for Hela CellCycMod PI 4N IC50/EC50: assay number 16; for Hela CellCycMod PI MI IC50/EC50: assay number 17; for Hela CellCycMod PI Cell Number IC50/EC50: assay number 18
hGSK3b = target: T2, hGSK3b (Homo sapiens, UniProt P49841); test: Cerep LANCE kinase assay hGSK3b (S1 assay 34); format: biochemical
T2 construct: purchased Cerep (LANCE kinase assay platform, contract assay)
T2 sequence (P49841 whole entry): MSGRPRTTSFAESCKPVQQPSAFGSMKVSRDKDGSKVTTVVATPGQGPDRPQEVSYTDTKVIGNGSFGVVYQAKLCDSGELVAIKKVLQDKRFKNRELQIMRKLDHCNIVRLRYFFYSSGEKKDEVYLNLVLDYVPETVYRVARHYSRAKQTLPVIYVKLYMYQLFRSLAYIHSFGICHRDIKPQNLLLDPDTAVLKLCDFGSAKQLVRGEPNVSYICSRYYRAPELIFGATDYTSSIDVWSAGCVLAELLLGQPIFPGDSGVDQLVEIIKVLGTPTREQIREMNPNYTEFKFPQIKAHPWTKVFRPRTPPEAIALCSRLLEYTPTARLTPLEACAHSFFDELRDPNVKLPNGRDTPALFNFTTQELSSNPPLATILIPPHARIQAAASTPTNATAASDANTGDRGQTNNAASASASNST

hKDR = target: T3, hKDR (Homo sapiens, UniProt P35968); test: Cerep LANCE kinase assay hKDR (S1 assay 32); format: biochemical
T3 construct: purchased Cerep (LANCE kinase assay platform, contract assay)
T3 sequence (P35968 20-1356): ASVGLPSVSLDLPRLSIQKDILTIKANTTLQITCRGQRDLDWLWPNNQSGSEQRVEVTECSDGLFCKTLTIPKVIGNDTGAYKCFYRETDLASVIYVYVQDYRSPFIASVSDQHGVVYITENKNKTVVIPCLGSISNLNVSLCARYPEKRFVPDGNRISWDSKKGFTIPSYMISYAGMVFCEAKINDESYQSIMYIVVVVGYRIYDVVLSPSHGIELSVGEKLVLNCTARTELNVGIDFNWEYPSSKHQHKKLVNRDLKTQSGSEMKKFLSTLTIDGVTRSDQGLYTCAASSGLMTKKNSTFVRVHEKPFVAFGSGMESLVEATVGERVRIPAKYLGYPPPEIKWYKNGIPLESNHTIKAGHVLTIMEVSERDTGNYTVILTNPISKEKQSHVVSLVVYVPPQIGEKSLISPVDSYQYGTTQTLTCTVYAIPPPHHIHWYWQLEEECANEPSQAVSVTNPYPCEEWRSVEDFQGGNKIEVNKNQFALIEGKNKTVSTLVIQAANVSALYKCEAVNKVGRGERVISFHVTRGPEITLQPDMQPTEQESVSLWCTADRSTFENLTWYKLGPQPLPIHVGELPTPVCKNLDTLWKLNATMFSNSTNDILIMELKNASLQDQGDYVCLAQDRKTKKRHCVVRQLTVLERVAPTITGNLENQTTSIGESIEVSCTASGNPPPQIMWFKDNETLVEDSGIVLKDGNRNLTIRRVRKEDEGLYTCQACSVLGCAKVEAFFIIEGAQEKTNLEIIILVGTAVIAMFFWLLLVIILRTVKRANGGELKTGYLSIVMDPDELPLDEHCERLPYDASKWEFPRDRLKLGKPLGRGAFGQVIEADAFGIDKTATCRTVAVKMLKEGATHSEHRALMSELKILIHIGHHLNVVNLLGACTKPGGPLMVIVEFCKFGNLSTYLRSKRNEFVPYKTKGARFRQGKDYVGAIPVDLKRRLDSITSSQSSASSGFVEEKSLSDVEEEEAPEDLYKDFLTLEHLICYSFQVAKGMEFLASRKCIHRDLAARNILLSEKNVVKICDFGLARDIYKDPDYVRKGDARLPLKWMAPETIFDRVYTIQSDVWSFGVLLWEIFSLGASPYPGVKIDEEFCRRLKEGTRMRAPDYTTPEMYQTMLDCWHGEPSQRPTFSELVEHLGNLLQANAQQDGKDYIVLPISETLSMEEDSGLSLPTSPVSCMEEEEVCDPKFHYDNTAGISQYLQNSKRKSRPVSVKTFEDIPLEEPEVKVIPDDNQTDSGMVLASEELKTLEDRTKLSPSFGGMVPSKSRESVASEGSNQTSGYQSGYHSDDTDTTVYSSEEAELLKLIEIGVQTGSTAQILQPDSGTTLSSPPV

[2] = tested on: nuclear β-catenin in C2C12 cells; test: cells; format: cell-based; conditions: concentration response; for WntCondMedia_bCatenin C2C12 IC50/EC50: assay number 5
hFLT3 = target: T4, hFLT3 (Homo sapiens, UniProt P36888); test: Cerep LANCE kinase assay hFLT3 (S1 assay 35); format: biochemical
T4 construct: purchased Cerep (LANCE kinase assay platform, contract assay)
T4 sequence (P36888 27-993): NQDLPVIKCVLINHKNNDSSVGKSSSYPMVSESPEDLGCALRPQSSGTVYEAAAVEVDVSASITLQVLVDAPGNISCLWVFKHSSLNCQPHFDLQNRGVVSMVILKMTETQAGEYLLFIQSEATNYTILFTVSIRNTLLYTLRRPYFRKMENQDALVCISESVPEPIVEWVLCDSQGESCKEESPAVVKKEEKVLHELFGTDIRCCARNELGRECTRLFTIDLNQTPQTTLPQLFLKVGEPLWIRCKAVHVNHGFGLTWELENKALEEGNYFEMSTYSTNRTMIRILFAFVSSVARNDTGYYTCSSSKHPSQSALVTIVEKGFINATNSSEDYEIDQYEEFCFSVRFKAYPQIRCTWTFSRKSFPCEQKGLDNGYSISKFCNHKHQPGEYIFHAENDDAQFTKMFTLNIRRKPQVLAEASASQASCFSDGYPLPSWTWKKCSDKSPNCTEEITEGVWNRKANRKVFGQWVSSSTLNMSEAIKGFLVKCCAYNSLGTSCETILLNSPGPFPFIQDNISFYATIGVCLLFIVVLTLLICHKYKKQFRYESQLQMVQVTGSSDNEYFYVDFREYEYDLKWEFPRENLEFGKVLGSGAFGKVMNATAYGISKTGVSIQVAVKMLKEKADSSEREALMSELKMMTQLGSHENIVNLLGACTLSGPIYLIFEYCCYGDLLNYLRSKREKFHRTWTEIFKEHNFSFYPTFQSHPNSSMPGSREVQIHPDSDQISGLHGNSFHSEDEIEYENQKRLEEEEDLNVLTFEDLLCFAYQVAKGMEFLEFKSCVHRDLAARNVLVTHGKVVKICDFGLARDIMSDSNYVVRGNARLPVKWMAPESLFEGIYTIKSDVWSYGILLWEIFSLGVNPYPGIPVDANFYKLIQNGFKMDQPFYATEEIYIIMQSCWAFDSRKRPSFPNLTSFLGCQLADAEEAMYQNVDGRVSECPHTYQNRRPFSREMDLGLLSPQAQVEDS

hJAK2 = target: T5, hJAK2 (Homo sapiens, UniProt O60674); test: Cerep LANCE kinase assay hJAK2 (S1 assay 33); format: biochemical
T5 construct: purchased Cerep (LANCE kinase assay platform, contract assay)
T5 sequence (O60674 whole entry): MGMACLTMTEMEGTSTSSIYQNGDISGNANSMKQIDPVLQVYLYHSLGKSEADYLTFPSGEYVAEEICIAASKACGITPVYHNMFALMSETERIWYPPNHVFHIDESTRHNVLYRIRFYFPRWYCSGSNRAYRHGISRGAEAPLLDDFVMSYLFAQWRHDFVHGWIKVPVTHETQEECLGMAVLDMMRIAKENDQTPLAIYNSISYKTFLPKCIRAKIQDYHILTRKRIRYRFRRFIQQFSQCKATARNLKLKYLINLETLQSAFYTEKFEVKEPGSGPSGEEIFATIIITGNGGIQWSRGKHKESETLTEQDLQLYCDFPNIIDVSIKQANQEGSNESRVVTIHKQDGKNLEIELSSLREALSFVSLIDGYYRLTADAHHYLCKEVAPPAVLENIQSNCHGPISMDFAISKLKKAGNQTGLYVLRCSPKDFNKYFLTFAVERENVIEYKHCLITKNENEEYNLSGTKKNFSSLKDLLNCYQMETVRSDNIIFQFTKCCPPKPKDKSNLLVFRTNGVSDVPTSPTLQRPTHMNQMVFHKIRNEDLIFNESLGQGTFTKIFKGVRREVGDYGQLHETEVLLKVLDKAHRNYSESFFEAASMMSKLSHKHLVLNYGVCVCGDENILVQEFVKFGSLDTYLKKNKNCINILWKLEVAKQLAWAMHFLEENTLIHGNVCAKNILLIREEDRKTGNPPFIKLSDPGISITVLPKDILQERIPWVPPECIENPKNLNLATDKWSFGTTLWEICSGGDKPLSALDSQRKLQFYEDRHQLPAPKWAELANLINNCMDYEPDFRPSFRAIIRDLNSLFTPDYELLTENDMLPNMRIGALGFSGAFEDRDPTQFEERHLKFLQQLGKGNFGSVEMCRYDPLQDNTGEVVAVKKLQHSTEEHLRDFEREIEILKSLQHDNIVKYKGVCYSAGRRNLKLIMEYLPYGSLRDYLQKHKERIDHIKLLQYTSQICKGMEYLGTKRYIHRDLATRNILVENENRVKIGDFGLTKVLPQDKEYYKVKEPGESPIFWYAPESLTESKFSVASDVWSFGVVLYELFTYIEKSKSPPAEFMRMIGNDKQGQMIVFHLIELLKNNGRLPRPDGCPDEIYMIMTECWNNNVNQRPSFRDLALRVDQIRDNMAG

SW480 = test: cells; format: cell-based; conditions: basal
RKO = test: cells; format: cell-based; conditions: basal; for Basal_Viability ATP RKO IC50/EC50: assay number 29
Colo320 = test: cells; format: cell-based; conditions: basal; for Basal_Viability ATP Colo 320 IC50/EC50: assay number 27
SNU-C1 = test: cells; format: cell-based; conditions: basal
HT-29 = test: cells; format: cell-based; conditions: basal
[3] = tested on: HCT116 cells treated with a GSK3β inhibitor; test: cells; format: cell-based; conditions: for GSK3b inh pretreated_Viability ATP HCT116 IC50/EC50: assay number 26, GSK3b inhibitor pretreated
HCT116 = test: cells; format: cell-based; conditions: basal
DLD-1 = test: cells; format: cell-based; conditions: basal
[4] = tested on: endothelial tube formation in co-cultures of ECFCs and ADSCs treated with VEGF; test: cells; format: cell-based, human
[5] = tested on: ECFC/ADSC co-culture cell nuclei number

Row | Compound | IC50/EC50, WntCondMedia_Alk Phos C2C12 (assay number 6) [1] [µM] | IC50/EC50, hp70S6K1 LANCE (assay number 31) (hp70S6K1 (RPS6KB1)) [µM] | IC50/EC50, Hela CellCycMod PI 2N (assay number 14) (HeLa cells) [µM] | IC50/EC50, Hela CellCycMod PI 4N (assay number 16) (HeLa cells) [µM] | IC50/EC50, Hela CellCycMod PI Cell Number (assay number 18) (HeLa cells) [µM] | IC50/EC50, Hela CellCycMod PI MI (assay number 17) (HeLa cells) [µM] | IC50/EC50, Hela CellCycMod PI S Phase (assay number 15) (HeLa cells) [µM] | IC50/EC50, hGSK3b LANCE (assay number 34) (hGSK3b) [µM] | IC50/EC50, hKDR LANCE (assay number 32) (hKDR) [µM] | IC50/EC50, WntCondMedia_bCatenin C2C12 (assay number 5) [2] [µM] | IC50/EC50, hFLT3 LANCE (assay number 35) (hFLT3) [µM] | IC50/EC50, hJAK2 LANCE (assay number 33) (hJAK2) [µM] | WntCondMedia_Alk Phos C2C12 IC50/EC50 [1] [µM] | Basal_Viability ATP RKO IC50/EC50 (RKO) [µM] | Basal_Viability ATP Colo 320 IC50/EC50 (Colo320) [µM] | Hela CellCycMod PI 2N IC50/EC50 (HeLa cells) [µM] | Hela CellCycMod PI 4N IC50/EC50 (HeLa cells) [µM] | Hela CellCycMod PI MI IC50/EC50 (HeLa cells) [µM] | Hela CellCycMod PI Cell Number IC50/EC50 (HeLa cells) [µM] | WntCondMedia_bCatenin C2C12 IC50/EC50 [2] [µM] | also measured
1 | C[n+]1c2cc(N)ccc2cc2ccc(N)cc21 [NCGC00178831-03] | 1.5999 | 6.57 | 3.3946 | > 10 | 0.4722 | 2.194 | 1.9618 | > 20 | > 20 | > 20 | > 20 | > 20 |  |  |  |  |  |  |  |  | 
2 | CCc1nc(N)nc(N)c1-c1ccc(Cl)cc1 [NCGC00016256-17] | 0.0677 | > 20 | > 10 | > 10 | > 10 | > 10 | > 10 | > 20 | > 20 | 0.86 | > 20 | > 20 |  |  |  |  |  |  |  |  | 
3 | NC(N)=NN=C(/C=C/c1ccc([N+](=O)[O-])o1)/C=C/c1ccc([N+](=O)[O-])o1 [NCGC00181330-02] | 0.372 |  | > 10 | > 10 | > 10 | > 10 | > 10 |  |  | > 20 |  |  |  |  |  |  |  |  |  |  | IC50/EC50, Basal_Viability ATP SW480 (assay number 24) (SW480): 0.0076 µM; IC50/EC50, Basal_Viability ATP RKO (assay number 29) (RKO): 0.0128 µM; IC50/EC50, Basal_Viability ATP Colo 320 (assay number 27) (Colo320): 0.003 µM; IC50/EC50, Basal_Viability ATP SNU-C1 (assay number 30) (SNU-C1): 1.3539 µM; IC50/EC50, Basal_Viability ATP HT-29 (assay number 28) (HT-29): 0.003 µM; IC50/EC50, GSK3b inh pretreated_Viability ATP HCT116 (assay number 26) ([3]; GSK3b inh pretreated): 0.0237 µM; IC50/EC50, Basal_Viability ATP HCT116 (assay number 25) (HCT116): 0.1357 µM; IC50/EC50, Basal_Viability ATP DLD-1 (assay number 23) (DLD-1): > 20 µM
4 | CC[C@]1(O)C[C@@H]2CN(CCc3c([nH]c4ccccc34)[C@@](C(=O)OC)(c3cc4c(cc3OC)N(C)[C@H]3[C@@](O)(C(=O)OC)[C@H](OC(C)=O)[C@]5(CC)C=CCN6CC[C@]43[C@@H]65)C2)C1.O=S(=O)(O)O [NCGC00344583-01] |  |  |  |  |  |  |  |  |  |  |  |  | > 20 | 0.001 | 0.001 | 0.0048 | 0.00483 | 0.00452 | 0.00521 | 0.0035 | Hela CellCycMod PI S Phase IC50/EC50 (HeLa cells; assay number 15, S phase): > 10 µM; Basal_Viability ATP SNU-C1 IC50/EC50 (SNU-C1; assay number 30): 0.001 µM; Basal_Viability ATP HT-29 IC50/EC50 (HT-29; assay number 28): 0.001 µM; GSK3b inh pretreated_Viability ATP HCT116 IC50/EC50 [3]: 0.001 µM; VEGF_ADSC\ECFC Angio CD31 TubeArea IC50/EC50 [4]: 0.0026 µM; VEGF_ADSC\ECFC Angio Hoechst NucArea IC50/EC50 [5]: > 10 µM
5 | COc1cccc2c1C(=O)c1c(O)c3c(c(O)c1C2=O)C[C@@](O)(C(=O)CO)CC3OC1CC(N2CCOC(OC)C2)C(O)C(C)O1 (stereo partly shown) [NCGC00319019-01] |  |  |  |  |  |  |  |  |  |  |  |  | > 20 | 0.001 | 0.001 |  | > 10 | 0.01176 | 0.00468 | 0.0135 | Basal_Viability ATP SW480 IC50/EC50 (SW480; assay number 24): 0.001 µM; GSK3b inh pretreated_Viability ATP HCT116 IC50/EC50 [3]: 0.001 µM; VEGF_ADSC\ECFC Angio CD31 TubeArea IC50/EC50 [4]: 0.003 µM; VEGF_ADSC\ECFC Angio Hoechst NucArea IC50/EC50 [5]: 0.04422 µM; Basal_Viability ATP DLD-1 IC50/EC50 (DLD-1; assay number 23): 0.001 µM
6 | CCCN(CCC)C(=O)C(CCC(=O)OCCCN1CCN(CCOC(=O)Cc2c(C)n(C(=O)c3ccc(Cl)cc3)c3ccc(OC)cc23)CC1)NC(=O)c1ccccc1 (stereo not shown) [NCGC00183024-01] |  |  |  |  |  |  |  |  |  |  |  |  | 13.2162 |  |  | > 10 | > 10 | > 10 | 5.4844 | > 20 | hp70S6K1 LANCE IC50/EC50 (hp70S6K1 (RPS6KB1); assay number 31): > 20 µM; hGSK3b LANCE IC50/EC50 (hGSK3b; assay number 34): > 20 µM; hKDR LANCE IC50/EC50 (hKDR; assay number 32): > 20 µM; hFLT3 LANCE IC50/EC50 (hFLT3; assay number 35): > 20 µM; hJAK2 LANCE IC50/EC50 (hJAK2; assay number 33): > 20 µM
